Data from the supplement of paper PMC10307832.

Experiments:
Assay in all cases: relative viability (nuclei count vs DMSO), 5 days (fraction); higher = more cells survive
Omipalisib = compound: COc1ncc(-c2ccc3nccc(-c4ccnnc4)c3c2)cc1NS(=O)(=O)c1ccc(F)cc1F [Omipalisib]
Outline: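 For viability, nuclei in each treated well were divided by nuclei in vehicle wells and the median across plates was taken. Lung cancer cell lines in 1536-well plates were pinned with five library-drug doses (not always all listed) spaced by √10, cultured 5 days without medium change, and imaged at 4× after Hoechst staining, with plates passing only at control CV below 25% and at least one doubling.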

Omipalisib + Palbociclib = compound: COc1ncc(-c2ccc3nccc(-c4ccnnc4)c3c2)cc1NS(=O)(=O)c1ccc(F)cc1F [Omipalisib] + CC(=O)c1c(C)c2cnc(Nc3ccc(N4CCNCC4)cn3)nc2n(C2CCCC2)c1=O [Palbociclib] (partner 0.5 µM)
Outline: (§1)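 Dosing by pin tool came one day after lung cancer cell lines were seeded in 1536-well plates, using either one drug or a fixed anchor-drug dose plus five library-drug doses (not always all listed) in √10 steps. After 5 days, nuclei were counted on 4× images. Relative viability is treated-well nuclei count divided by vehicle-well nuclei count, and values are medians of duplicate plates.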

Omipalisib + Crizotinib = compound: COc1ncc(-c2ccc3nccc(-c4ccnnc4)c3c2)cc1NS(=O)(=O)c1ccc(F)cc1F [Omipalisib] + C[C@@H](Oc1cc(-c2cnn(C3CCNCC3)c2)cnc1N)c1c(Cl)ccc(F)c1Cl [Crizotinib] (partner 1 µM)
Outline: as §1

Omipalisib + Foretinib = compound: COc1ncc(-c2ccc3nccc(-c4ccnnc4)c3c2)cc1NS(=O)(=O)c1ccc(F)cc1F [Omipalisib] + COc1cc2c(Oc3ccc(NC(=O)C4(C(=O)Nc5ccc(F)cc5)CC4)cc3F)ccnc2cc1OCCCN1CCOCC1 [Foretinib] (partner 0.25 µM)
Outline: as §1

Omipalisib + Tozasertib = compound: COc1ncc(-c2ccc3nccc(-c4ccnnc4)c3c2)cc1NS(=O)(=O)c1ccc(F)cc1F [Omipalisib] + Cc1cc(Nc2cc(N3CCN(C)CC3)nc(Sc3ccc(NC(=O)C4CC4)cc3)n2)n[nH]1 [Tozasertib] (partner 0.1 µM)
Outline: as §1

Omipalisib + Trametinib = compound: COc1ncc(-c2ccc3nccc(-c4ccnnc4)c3c2)cc1NS(=O)(=O)c1ccc(F)cc1F [Omipalisib] + CC(=O)Nc1cccc(-n2c(=O)n(C3CC3)c(=O)c3c(Nc4ccc(I)cc4F)n(C)c(=O)c(C)c32)c1 [Trametinib] (partner 0.02 µM)
Outline: as §1

| Cell Line | relative viability (Omipalisib; 0.0003 µM) | relative viability (Omipalisib; 0.003 µM) | relative viability (Omipalisib; 0.03 µM) | relative viability (Omipalisib + Palbociclib; first compound 0.0003 µM) | relative viability (Omipalisib + Palbociclib; first compound 0.003 µM) | relative viability (Omipalisib + Palbociclib; first compound 0.03 µM) | relative viability (Omipalisib + Crizotinib; first compound 0.0003 µM) | relative viability (Omipalisib + Crizotinib; first compound 0.003 µM) | relative viability (Omipalisib + Crizotinib; first compound 0.03 µM) | relative viability (Omipalisib + Foretinib; first compound 0.0003 µM) | relative viability (Omipalisib + Foretinib; first compound 0.003 µM) | relative viability (Omipalisib + Foretinib; first compound 0.03 µM) | relative viability (Omipalisib + Tozasertib; first compound 0.0003 µM) | relative viability (Omipalisib + Tozasertib; first compound 0.003 µM) | relative viability (Omipalisib + Tozasertib; first compound 0.03 µM) | relative viability (Omipalisib + Trametinib; first compound 0.0003 µM) | relative viability (Omipalisib + Trametinib; first compound 0.003 µM) | relative viability (Omipalisib + Trametinib; first compound 0.03 µM) |
| --- | --- | --- | --- | --- | --- | --- | --- | --- | --- | --- | --- | --- | --- | --- | --- | --- | --- | --- |
| PC-3 [JPC-3] | 1.01 | 1.07 | 0.912 | 0.547 | 0.527 | 0.534 | 0.922 | 1 | 0.889 | 1.03 | 1.03 | 0.856 | 1.01 | 0.856 | 0.625 | 0.738 | 0.664 | 0.439 |
| NCI-H358 | 0.893 | 0.561 | 0.388 | 0.148 | 0.139 | 0.131 | 0.502 | 0.6 | 0.303 | 0.626 | 0.591 | 0.371 | 0.126 | 0.108 | 0.0977 | 0.136 | 0.115 | 0.107 |
| NCI-H838 | 0.957 | 0.737 | 0.453 | 0.221 | 0.184 | 0.146 | 0.767 | 0.57 | 0.354 | 0.953 | 0.703 | 0.375 | 0.293 | 0.222 | 0.221 | 0.494 | 0.389 | 0.199 |
| HCC-827 | 1.04 | 1.04 | 0.666 | 0.471 | 0.381 | 0.266 | 0.952 | 0.885 | 0.373 | 1.03 | 0.803 | 0.288 | 0.453 | 0.365 | 0.187 | 0.472 | 0.37 | 0.202 |
| NCI-H2087 | 1.02 | 0.723 | 0.504 | 0.247 | 0.219 | 0.146 | 0.795 | 0.935 | 0.734 | 1.17 | 0.809 | 0.557 | 0.243 | 0.224 | 0.126 | 0.18 | 0.163 | 0.142 |
| EMC-BAC-2 | 0.848 | 0.613 | 0.549 | 0.441 | 0.38 | 0.311 | 0.744 | 0.665 | 0.395 | 0.91 | 0.637 | 0.482 | 0.266 | 0.27 | 0.261 | 0.569 | 0.571 | 0.436 |
| 201T | 0.986 | 1.03 | 0.729 | 0.325 | 0.343 | 0.27 | 0.988 | 1.05 | 0.731 | 1.12 | 0.864 | 0.308 | 0.883 | 0.894 | 0.473 | 0.681 | 0.658 | 0.465 |
| RERF-LC-KJ | 0.942 | 0.733 | 0.571 | 1.04 | 0.846 | 0.555 | 0.736 | 0.814 | 0.679 | 0.786 | 0.58 | 0.594 | 0.463 | 0.525 | 0.382 | 0.769 | 0.635 | 0.413 |
